Reference: PMC12217109, “Development of novel benzamide class I selective lysine deacetylase inhibitors as potent anticancer agents” (Journal of Enzyme Inhibition and Medicinal Chemistry, 2025)
Like-named read-outs stand apart in the source and are kept apart here.

Columns and labels:
OVCAR-5 = experiment: NCI-60 cytotoxicity screen; assay type: cell-based; details: Homo sapiens, NCI-60, 48 h, ovarian
H322M = experiment: NCI-60 cytotoxicity screen; assay type: cell-based, human; details: Homo sapiens, NCI-H322M; NCI-60, 48 h, NSCLC
Excerpt: (§1) Compounds 3–7 were submitted to the US National Cancer Institute (NIH, Bethesda, Maryland) for screening against the NCI-60 panel of human cancer cell lines, as per standard protocol.

TK-10 = experiment: NCI-60 cytotoxicity screen; assay type: cell-based, human; details: Homo sapiens, TK-10; NCI-60, 48 h, renal
Excerpt: as §1

SNB-19 = experiment: NCI-60 cytotoxicity screen; assay type: cell-based; details: Homo sapiens, NCI-60, 48 h, CNS
Excerpt: as §1

MCF-7 = experiment: NCI-60 cytotoxicity screen; assay type: cell-based; details: Homo sapiens, MCF7; NCI-60, 48 h, breast
Excerpt: as §1

MDA-MB-435 = experiment: NCI-60 cytotoxicity screen; assay type: cell-based; details: Homo sapiens, NCI-60, 48 h, melanoma
Excerpt: as §1

UACC-62 = experiment: NCI-60 cytotoxicity screen; assay type: cell-based; details: Homo sapiens, NCI-60, 48 h, melanoma
Excerpt: as §1

HS 578 T = experiment: NCI-60 cytotoxicity screen; assay type: cell-based; details: Homo sapiens, NCI-60, 48 h, breast
Excerpt: as §1

SK-MEL-28 = experiment: NCI-60 cytotoxicity screen; assay type: cell-based; details: Homo sapiens, NCI-60, 48 h, melanoma
Excerpt: as §1

SW620 = experiment: NCI-60 cytotoxicity screen; assay type: cell-based; details: Homo sapiens, SW-620; NCI-60, 48 h, colon
Excerpt: as §1

PC-3 = experiment: NCI-60 cytotoxicity screen; assay type: cell-based; details: Homo sapiens, NCI-60, 48 h, prostate
Excerpt: as §1

NCI/ADR-RES = experiment: NCI-60 cytotoxicity screen; assay type: cell-based; details: Homo sapiens, NCI-60, 48 h, ovarian
Excerpt: as §1

HL-60 = experiment: NCI-60 cytotoxicity screen; assay type: cell-based; details: Homo sapiens, NCI-60, 48 h, leukaemia
Excerpt: as §1

H23 = experiment: NCI-60 cytotoxicity screen; assay type: cell-based; details: Homo sapiens, NCI-60, 48 h, NSCLC
Excerpt: as §1

HCT15 = experiment: NCI-60 cytotoxicity screen; assay type: cell-based; details: Homo sapiens, HCT-15; NCI-60, 48 h, colon
Excerpt: as §1

U251 = experiment: NCI-60 cytotoxicity screen; assay type: cell-based; details: Homo sapiens, U-251; NCI-60, 48 h, CNS
Excerpt: as §1

CAKI-1 = experiment: NCI-60 cytotoxicity screen; assay type: cell-based; details: Homo sapiens, NCI-60, 48 h, renal
Excerpt: as §1

OVCAR-8 = experiment: NCI-60 cytotoxicity screen; assay type: cell-based; details: Homo sapiens, NCI-60, 48 h, ovarian
Excerpt: as §1

RXF 393 = experiment: NCI-60 cytotoxicity screen; assay type: cell-based; details: Homo sapiens, NCI-60, 48 h, renal
Excerpt: as §1

EKVX = experiment: NCI-60 cytotoxicity screen; assay type: cell-based; details: Homo sapiens, NCI-60, 48 h, NSCLC
Excerpt: as §1

A549 = experiment: NCI-60 cytotoxicity screen; assay type: cell-based; details: Homo sapiens, NCI-60, 48 h, NSCLC
Excerpt: as §1

SR = experiment: NCI-60 cytotoxicity screen; assay type: cell-based; details: Homo sapiens, NCI-60, 48 h, leukaemia
Excerpt: as §1

BT 549 = experiment: NCI-60 cytotoxicity screen; assay type: cell-based; details: Homo sapiens, NCI-60, 48 h, breast
Excerpt: as §1

RPMI-8226 = experiment: NCI-60 cytotoxicity screen; assay type: cell-based; details: Homo sapiens, NCI-60, 48 h, leukaemia
Excerpt: as §1

ACHN = experiment: NCI-60 cytotoxicity screen; assay type: cell-based; details: Homo sapiens, NCI-60, 48 h, renal
Excerpt: as §1

HCT116 = experiment: NCI-60 cytotoxicity screen; assay type: cell-based; details: Homo sapiens, HCT-116; NCI-60, 48 h, colon
Excerpt: as §1

SF-268 = experiment: NCI-60 cytotoxicity screen; assay type: cell-based; details: Homo sapiens, NCI-60, 48 h, CNS
Excerpt: as §1

H460 = experiment: NCI-60 cytotoxicity screen; assay type: cell-based; details: Homo sapiens, NCI-60, 48 h, NSCLC
Excerpt: as §1

786-0 = experiment: NCI-60 cytotoxicity screen; assay type: cell-based; details: Homo sapiens, NCI-60, 48 h, renal
Excerpt: as §1

SK-MEL-5 = experiment: NCI-60 cytotoxicity screen; assay type: cell-based; details: Homo sapiens, NCI-60, 48 h, melanoma
Excerpt: as §1

UO-31 = experiment: NCI-60 cytotoxicity screen; assay type: cell-based; details: Homo sapiens, NCI-60, 48 h, renal
Excerpt: as §1

HOP-62 = experiment: NCI-60 cytotoxicity screen; assay type: cell-based; details: Homo sapiens, NCI-60, 48 h, NSCLC
Excerpt: as §1

SK-MEL-2 = experiment: NCI-60 cytotoxicity screen; assay type: cell-based; details: Homo sapiens, NCI-60, 48 h, melanoma
Excerpt: as §1

LOX IMVI = experiment: NCI-60 cytotoxicity screen; assay type: cell-based; details: Homo sapiens, NCI-60, 48 h, melanoma
Excerpt: as §1

SF-539 = experiment: NCI-60 cytotoxicity screen; assay type: cell-based; details: Homo sapiens, NCI-60, 48 h, CNS
Excerpt: as §1

SF-295 = experiment: NCI-60 cytotoxicity screen; assay type: cell-based; details: Homo sapiens, NCI-60, 48 h, CNS
Excerpt: as §1

IGROV-1 = experiment: NCI-60 cytotoxicity screen; assay type: cell-based; details: Homo sapiens, NCI-60, 48 h, ovarian
Excerpt: as §1

SN12C = experiment: NCI-60 cytotoxicity screen; assay type: cell-based; details: Homo sapiens, NCI-60, 48 h, renal
Excerpt: as §1

SNB-75 = experiment: NCI-60 cytotoxicity screen; assay type: cell-based; details: Homo sapiens, NCI-60, 48 h, CNS
Excerpt: as §1

H522 = experiment: NCI-60 cytotoxicity screen; assay type: cell-based; details: Homo sapiens, NCI-60, 48 h, NSCLC
Excerpt: as §1

COLO205 = experiment: NCI-60 cytotoxicity screen; assay type: cell-based; details: Homo sapiens, COLO 205; NCI-60, 48 h, colon
Excerpt: as §1

KM12 = experiment: NCI-60 cytotoxicity screen; assay type: cell-based; details: Homo sapiens, NCI-60, 48 h, colon
Excerpt: as §1

DU-145 = experiment: NCI-60 cytotoxicity screen; assay type: cell-based; details: Homo sapiens, NCI-60, 48 h, prostate
Excerpt: as §1

OVCAR-3 = experiment: NCI-60 cytotoxicity screen; assay type: cell-based; details: Homo sapiens, NCI-60, 48 h, ovarian
Excerpt: as §1

M14 = experiment: NCI-60 cytotoxicity screen; assay type: cell-based; details: Homo sapiens, NCI-60, 48 h, melanoma
Excerpt: as §1

OVCAR-4 = experiment: NCI-60 cytotoxicity screen; assay type: cell-based; details: Homo sapiens, NCI-60, 48 h, ovarian
Excerpt: as §1

T-47D = experiment: NCI-60 cytotoxicity screen; assay type: cell-based, human; details: Homo sapiens, T47D; NCI-60, 48 h, breast
[1] = tested on: A2780 ovarian cancer cell line; experiment: MTT cellular viability assay, A2780; assay type: cell-based; details: Homo sapiens

C=C(CN1CCN(c2ccc(C(F)(F)F)cc2)CC1)c1ccc(C(=O)Nc2ccccc2N)cc1 [Compound 5, N-(2-aminophenyl)-4–(3-(4–(4-(trifluoromethyl)phenyl)piperazin-1-yl)prop-1-en-2-yl)benzamide]
IC50 (OVCAR-5): > 100 µM
IC50 (H322M): 40.5 µM
IC50 (TK-10): 21 µM
IC50 (SNB-19): 12.6 µM
IC50 (MCF-7): 10.9 µM
IC50 (MDA-MB-435): 25.2 µM
IC50 (UACC-62): 23 µM
IC50 (HS 578 T): 22.5 µM
IC50 (SK-MEL-28): > 100 µM
IC50 (SW620): 78.9 µM
IC50 (PC-3): 1.29 µM
IC50 (NCI/ADR-RES): 3.37 µM
IC50 (HL-60): 0.08 µM
IC50 (H23): 9.48 µM
IC50 (HCT15): > 100 µM
IC50 (U251): 6.25 µM
IC50 (CAKI-1): 6.08 µM
IC50 (OVCAR-8): 6.95 µM
IC50 (RXF 393): 1.97 µM
IC50 (EKVX): 12.4 µM
IC50 (A549): 6.43 µM
IC50 (SR): 1.1 µM
IC50 (BT 549): 6.92 µM
IC50 (RPMI-8226): 0.4 µM
IC50 (ACHN): 9.64 µM
IC50 (HCT116): 11.4 µM
IC50 (SF-268): 6.78 µM
IC50 (H460): 3.44 µM
IC50 (786-0): 2.85 µM
IC50 (SK-MEL-5): 4.43 µM
IC50 (UO-31): 0.97 µM
IC50 (HOP-62): 8.38 µM
IC50 (SK-MEL-2): > 100 µM
IC50 (LOX IMVI): 11.1 µM
IC50 (SF-539): 8.15 µM
IC50 (SF-295): 10.8 µM
IC50 (IGROV-1): 18.2 µM
IC50 (SN12C): 6.37 µM
IC50 (SNB-75): 12.5 µM
IC50 (H522): 1.85 µM
IC50 (COLO205): > 100 µM
IC50 (KM12): 7.64 µM
IC50 (DU-145): 21 µM
IC50 (OVCAR-3): 12 µM
IC50 (M14): 90.6 µM
IC50 (OVCAR-4): 5.68 µM
IC50 (T-47D): 21.8 µM
IC50 ([1]; A2780, MTT, 96 h, read-out: A2780 IC50): 1.9 ± 0.4 µM
IC50 ([1]; listed as A2780* of Table 4, ovarian, values as in Tables 1 and 2 (MTT), read-out: A2780* cytotoxicity IC50): 1.9 µM
